Source: the supplement of paper PMC10307832

How the values were obtained:
Experiment in all cases: relative viability (nuclei count vs DMSO), 5 days (fraction); higher = more cells survive
NCI-H1975 = test system: NCI-H1975
Outline: (§1)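 Lung cancer cell lines in 1536-well plates were dosed by pin tool the day after seeding, either with one drug alone or with a fixed anchor-drug dose plus five library-drug doses (not always all listed) in √10 steps. After 5 days, cells were fixed and their nuclei stained in one step (final 0.05% Triton X-100, 1% formaldehyde, 1 ug/ml Hoechst), then counted on 4× images. Relative viability is the nuclei count in treated wells divided by that in vehicle wells. Values are medians of duplicate plates.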

ChaGo-K-1 = test system: ChaGo-K-1
Outline: as §1

NCI-H2347 = test system: NCI-H2347
Outline: as §1

NCI-H1734 = test system: NCI-H1734
Outline: as §1

NCI-H1355 = test system: NCI-H1355
Outline: as §1

NCI-H1944 = test system: NCI-H1944
Outline: as §1

LC-2-ad = test system: LC-2-ad
Outline: as §1

NCI-H2087 = test system: NCI-H2087
Outline: as §1

SW 1573 = test system: SW 1573
Outline: as §1

SK-LU-1 = test system: SK-LU-1
Outline: as §1

PC-3 [JPC-3] = test system: PC-3 [JPC-3]
Outline: as §1

NCI-H838 = test system: NCI-H838
Outline: as §1

EMC-BAC-2 = test system: EMC-BAC-2
Outline: as §1

NCI-H2126 = test system: NCI-H2126
Outline: as §1

HCC-78 = test system: HCC-78
Outline: as §1

HCC-366 = test system: HCC-366
Outline: as §1

UMC-11 = test system: UMC-11
Outline: as §1

NCI-H2009 = test system: NCI-H2009
Outline: as §1

NCI-H441 = test system: NCI-H441
Outline: as §1

NCI-H522 = test system: NCI-H522
Outline: as §1

HOP-62 = test system: HOP-62
Outline: as §1

NCI-H727 = test system: NCI-H727
Outline: as §1

## C=C1C(=O)O[C@@H](CCCCCCCC)[C@@H]1C(=O)O [C-75] + Cc1nc(Nc2ncc(C(=O)Nc3c(C)cccc3Cl)s2)cc(N2CCN(CCO)CC2)n1 [Dasatinib] (partner 0.075 µM)
NCI-H1975; first compound 0.08 µM
  relative viability: 0.364
NCI-H1975; first compound 0.253 µM
  relative viability: 0.432
NCI-H1975; first compound 0.8 µM
  relative viability: 0.318
NCI-H1975; first compound 2.53 µM
  relative viability: 0.324
NCI-H1975; first compound 8 µM
  relative viability: 0.404
ChaGo-K-1; first compound 0.08 µM
  relative viability: 0.675
ChaGo-K-1; first compound 0.253 µM
  relative viability: 0.463
ChaGo-K-1; first compound 0.8 µM
  relative viability: 0.567
ChaGo-K-1; first compound 2.53 µM
  relative viability: 0.393
ChaGo-K-1; first compound 8 µM
  relative viability: 0.593
NCI-H2347; first compound 0.08 µM
  relative viability: 0.367
NCI-H2347; first compound 0.253 µM
  relative viability: 0.448
NCI-H2347; first compound 0.8 µM
  relative viability: 0.25
NCI-H2347; first compound 8 µM
  relative viability: 0.32
NCI-H1734; first compound 0.08 µM
  relative viability: 0.525
NCI-H1734; first compound 0.253 µM
  relative viability: 0.415
NCI-H1734; first compound 0.8 µM
  relative viability: 0.465
NCI-H1734; first compound 2.53 µM
  relative viability: 0.351
NCI-H1734; first compound 8 µM
  relative viability: 0.337
NCI-H1355; first compound 0.08 µM
  relative viability: 0.71
NCI-H1355; first compound 0.253 µM
  relative viability: 0.613
NCI-H1355; first compound 0.8 µM
  relative viability: 0.702
NCI-H1355; first compound 2.53 µM
  relative viability: 0.649
NCI-H1355; first compound 8 µM
  relative viability: 0.775
NCI-H1944; first compound 0.08 µM
  relative viability: 0.234
NCI-H1944; first compound 0.253 µM
  relative viability: 0.169
NCI-H1944; first compound 0.8 µM
  relative viability: 0.193
NCI-H1944; first compound 8 µM
  relative viability: 0.225
LC-2-ad; first compound 0.08 µM
  relative viability: 0.491
LC-2-ad; first compound 0.253 µM
  relative viability: 0.521
LC-2-ad; first compound 0.8 µM
  relative viability: 0.468
LC-2-ad; first compound 2.53 µM
  relative viability: 0.455
LC-2-ad; first compound 8 µM
  relative viability: 0.4
NCI-H2087; first compound 0.08 µM
  relative viability: 0.88
NCI-H2087; first compound 0.253 µM
  relative viability: 1.06
NCI-H2087; first compound 0.8 µM
  relative viability: 0.66
NCI-H2087; first compound 2.53 µM
  relative viability: 0.829
NCI-H2087; first compound 8 µM
  relative viability: 0.865
SW 1573; first compound 0.08 µM
  relative viability: 0.632
SW 1573; first compound 0.253 µM
  relative viability: 0.476
SW 1573; first compound 0.8 µM
  relative viability: 0.291
SW 1573; first compound 2.53 µM
  relative viability: 0.46
SW 1573; first compound 8 µM
  relative viability: 0.295
SK-LU-1; first compound 0.08 µM
  relative viability: 0.168
SK-LU-1; first compound 0.253 µM
  relative viability: 0.175
SK-LU-1; first compound 0.8 µM
  relative viability: 0.166
SK-LU-1; first compound 2.53 µM
  relative viability: 0.127
SK-LU-1; first compound 8 µM
  relative viability: 0.172
PC-3 [JPC-3]; first compound 0.08 µM
  relative viability: 1.01
PC-3 [JPC-3]; first compound 0.253 µM
  relative viability: 0.994
PC-3 [JPC-3]; first compound 0.8 µM
  relative viability: 1.01
PC-3 [JPC-3]; first compound 2.53 µM
  relative viability: 0.937
PC-3 [JPC-3]; first compound 8 µM
  relative viability: 1
NCI-H838; first compound 0.08 µM
  relative viability: 0.242
NCI-H838; first compound 0.253 µM
  relative viability: 0.239
NCI-H838; first compound 0.8 µM
  relative viability: 0.274
NCI-H838; first compound 2.53 µM
  relative viability: 0.26
NCI-H838; first compound 8 µM
  relative viability: 0.268
EMC-BAC-2; first compound 0.08 µM
  relative viability: 0.37
EMC-BAC-2; first compound 0.253 µM
  relative viability: 0.313
EMC-BAC-2; first compound 0.8 µM
  relative viability: 0.283
EMC-BAC-2; first compound 2.53 µM
  relative viability: 0.261
EMC-BAC-2; first compound 8 µM
  relative viability: 0.276
NCI-H2126; first compound 0.08 µM
  relative viability: 0.665
NCI-H2126; first compound 0.253 µM
  relative viability: 0.657
NCI-H2126; first compound 0.8 µM
  relative viability: 0.576
NCI-H2126; first compound 2.53 µM
  relative viability: 0.448
NCI-H2126; first compound 8 µM
  relative viability: 0.586
HCC-78; first compound 0.08 µM
  relative viability: 0.418
HCC-78; first compound 0.253 µM
  relative viability: 0.469
HCC-78; first compound 0.8 µM
  relative viability: 0.341
HCC-78; first compound 2.53 µM
  relative viability: 0.274
HCC-78; first compound 8 µM
  relative viability: 0.347
HCC-366; first compound 0.08 µM
  relative viability: 0.744
HCC-366; first compound 0.253 µM
  relative viability: 0.623
HCC-366; first compound 0.8 µM
  relative viability: 0.605
HCC-366; first compound 8 µM
  relative viability: 0.443
UMC-11; first compound 0.08 µM
  relative viability: 0.43
UMC-11; first compound 0.253 µM
  relative viability: 0.547
UMC-11; first compound 0.8 µM
  relative viability: 0.389
UMC-11; first compound 2.53 µM
  relative viability: 0.433
UMC-11; first compound 8 µM
  relative viability: 0.376
NCI-H2009; first compound 0.08 µM
  relative viability: 0.303
NCI-H2009; first compound 0.253 µM
  relative viability: 0.219
NCI-H2009; first compound 0.8 µM
  relative viability: 0.281
NCI-H2009; first compound 2.53 µM
  relative viability: 0.228
NCI-H2009; first compound 8 µM
  relative viability: 0.203
NCI-H441; first compound 0.08 µM
  relative viability: 0.545
NCI-H441; first compound 0.253 µM
  relative viability: 0.916
NCI-H441; first compound 0.8 µM
  relative viability: 0.723
NCI-H441; first compound 2.53 µM
  relative viability: 0.463
NCI-H441; first compound 8 µM
  relative viability: 0.594
NCI-H522; first compound 0.08 µM
  relative viability: 0.867
NCI-H522; first compound 0.253 µM
  relative viability: 0.849
NCI-H522; first compound 0.8 µM
  relative viability: 0.784
NCI-H522; first compound 8 µM
  relative viability: 0.906
HOP-62; first compound 0.08 µM
  relative viability: 0.642
HOP-62; first compound 0.253 µM
  relative viability: 0.499
HOP-62; first compound 0.8 µM
  relative viability: 0.6
HOP-62; first compound 2.53 µM
  relative viability: 0.603
HOP-62; first compound 8 µM
  relative viability: 0.666
NCI-H727; first compound 0.08 µM
  relative viability: 0.406
NCI-H727; first compound 0.253 µM
  relative viability: 0.494
NCI-H727; first compound 0.8 µM
  relative viability: 0.417
NCI-H727; first compound 8 µM
  relative viability: 0.305
